The values that follow come from publication PMC8838787, “The Antiproliferative and Apoptotic Effects of a Novel Quinazoline Carrying Substituted-Sulfonamides: In Vitro and Molecular Docking Study” (Molecules, 2022).

Test [1] concerns LoVo (colon) cancer cells. Description: MTT cell viability assay, LoVo. It counts as cell-based. As to conditions: Homo sapiens, 48 h, average ± SD (n = 3). As to the method: (§1) Compounds 4a–n were subjected to the cytotoxicity screening of the cell lines MCF-7 (breast), LoVo (colon), HepG2 (liver) and A549 (lung) carcinoma cells as well as HUVEC normal cell lines. The MTT assay was employed to assess cytotoxicity after 48 h of treatment with different concentrations of each compound and doxorubicin was used as a reference drug. The results were presented in Table 1 as growth inhibitory concentration (IC50 values).
(§2) Cell viability was determined using 3-(4,5-dimethylthiazol-2-yl)-2,5-diphenyl tetrazolium bromide (MTT) assay as stated previously. In brief, A549 (lung), HepG2 (liver), LoVo (colon), MCF-7 (breast) cancer cells as well as normal cells (HUVEC) were seeded in 96-well plates (10^5 per well) and compounds were added in a different final concentration. All cells were treated for 48 h, and then 10μL of MTT reagent (5 mg/mL) was added to each well and further incubated for 4 h. Thereafter, 0.1 mL of acidified isopropanol was added to solubilize formazan product and the developed color was measured at 570 nm in Microplate ELISA Reader (BioTek, Elx-800, Winooski, VT, USA). The IC50 values (concentration required for 50% inhibition of cell viability) were calculated using dose response curve. Cell viability was calculated as = (Ab Treated/Ab Control) × 100.
(§3) The A549, HepG2, LoVo and MCF-7 cancer cell lines were obtained from the German Collection of Microorganisms and Cell Cultures (DSMZ) (Braunschweig, Germany). For Human umbilical vein endothelial cells (HUVEC cells), it was purchased from American Type Culture Collection (16549; Cat no. PCS-100-010; ATTCC, Manassas, VA, USA).
(Formazan colour is commonly taken as a measure of viable cells.)

For test [2], the system named is MCF-7 (breast) cancer cells. Description: MTT cell viability assay, MCF-7. It counts as cell-based, human. As to conditions: Homo sapiens, MCF7, 48 h, average ± SD (n = 3). How it is done: as §1, §2, §3
In test [3] the test system is Bax. The test can be described thus: RT-PCR of apoptotic genes, Bax. The class given is cell-based, human. As to conditions: 24 h, vs control, normalized to β-actin. The text has this: (§4) We next used reverse transcription polymerase chain reaction (RT-PCR) and Western blot analysis to look at Bax (proapoptotic), Bcl-2 (antiapoptotic) and caspase 7 (executioner caspase) expression at gene and protein level as an additional marker of apoptosis occurrence. In fact, apoptotic cell death is mostly directed by the levels of Bcl-2 family, whether they are pro-apoptotic or antiapoptotic and targeting these molecules as a therapeutic strategy is continuously under development. As predicted, we observed an upregulation in the expression of Bax in MCF-7 treated cells to (1.7-, 2- and 2.4-fold) with compound 4d and to (1.2-, 1.4- and 1.6-fold) with compound 4f at (1.25, 2.5 and 5 µM) respectively (Figure 6). […] This shifting in Bax to Bcl-2 ratio usually started caspases activation which plays a critical role in apoptosis execution. Among all caspases, caspase 7 is considered as one of the most crucial executioner caspases that mediate cell death, and its expression strongly correlates with apoptosis stimulation.
(§5) The MCF-7 cells (0.1 × 10^6) in 12 well plates were treated with different concentrations of compounds 4d and 4f for 24 h and untreated cells were used as a control. After 24 h of treatment, cell culture media was removed and the cells were lysed with Trizol (Invitrogen, Waltham, MA, USA), and total RNA was extracted from all the samples [42]. The RNA was estimated by Nano-drop and 1 µg of RNA was used in the cDNA synthesis. The cDNA was synthesized from RNA by using a cDNA synthesis kit (Invitrogen, Thermo Fisher Scientific, lnc., Waltham, MA, USA) according to the manufacturer’s instruction. After Reverse transcription at 42 °C for 60 min, RT-PCR was performed using 5× Firepol Master Mix ready to load (Solis BioDyne) according to manufacturer’s instruction. RT-PCR was used to analyze the gene expression level of P53, Bcl2, Bax and caspase 7 using specific sets of primers for each gene, while β-actin was utilized as a housekeeping gene. The program was run as follows, initial denaturation at 95 °C for 5 min; denaturation at 95 °C for 30 s; annealing at 55 °C for 45 s; elongation at 72 °C for 45 s (30 Cycles) and final extension at 72 °C for 10 min. The RT-PCR products were electrophoresed on a 1.2% agarose gel containing ethidium bromide and the gel was imaged on a Licor machine.

In test [4] the test system is Bcl-2. Description: RT-PCR of apoptotic genes, Bcl-2. It counts as cell-based, human. As to conditions: 24 h, vs DMSO-vehicle treated cells.
From the text: as §4, §5

For test [5], the system named is caspase 7. The test can be described thus: RT-PCR of apoptotic genes, caspase 7. It counts as cell-based, human. As to conditions: 24 h, relative to untreated cells.
From the text: as §4, §5

Test [6] relates to caspase 7. Description: Western blot, caspase 7 protein. It counts as cell-based, human. As to conditions: 24 h, in comparison to the control.
From the text: as §4
MCF-7 cells were plated in six well plates at the density of 0.5 × 10^6 and kept for adherence for overnight. On the next day, complete media was replaced with the fresh one and treated the cells with compounds 4d and 4f for 24 h at various concentrations. After 24 h of treatment, cells were harvested and washed twice with 1× PBS before adding the lysis buffer (20 mM Tris pH 7.5, 150 mM Nacl, 1 mM Na2EDTA, 1 mM EGTA, 1% Triton X100, 1 μg/mL Leupeptin and 100 µM phenylmethylsulfonyl fluoride—PMSF) and kept it for 1 h on ice, with intermittent vortex mixing every 10 min. The samples were centrifuged at 13,000 rpm at 4 °C for 15 min and then the supernatants were transferred into new tubes. Total protein was measured by using Bio-Rad Bradford kit and then 35 µg of the total protein was run on a 12% SDS-PAGE and transferred to a nitrocellulose membrane. The membrane was blocked with 5% BSA in TBST (150 mM Nacl, 20 mM Tris base and 0.1% Tween 20) for 2 h at room temperature and then washed three times with TBST buffer. Then the membrane was incubated with the desired antibodies (p53, Bcl-2, Bax, caspase7 and β-actin) (1:200, Santa Cruz Biotecnology, Inc., Dallas, TX, USA) and kept on a rocker at 4 °C overnight. On the next day, the membrane was washed three times with TBST buffer and then incubated with horseradish peroxidase-conjugated secondary antibody (1:3000) for 1 h at room temperature. After incubation, membranes were washed three times with TBST buffer and then were ready for immunodetection. For immunodetection, membranes were incubated with ECL Western blotting detecting reagents (Amersaham Pharmacia Biotech Inc., Zurich, Switzerland) and then bands were obtained by exposing to X-ray films (Amersham).
(In general: A western blot detects proteins with antibodies after separation by electrophoresis.)

For test [7], the system named is Bax. Description: Western blot, Bax protein. It counts as cell-based, human. As to conditions: MCF-7, 1.25, 2.5 and 5 μM, 24 h, vs control cells.
From the text: as §4, with “Among all caspases, caspase 7 is considered as one of the most crucial executioner caspases that mediate cell death, and its expression strongly correlates with apoptosis stimulation.” left out
(§6) MCF-7 cells were plated in six well plates at the density of 0.5 × 10^6 and kept for adherence for overnight. […] Total protein was measured by using Bio-Rad Bradford kit and then 35 µg of the total protein was run on a 12% SDS-PAGE and transferred to a nitrocellulose membrane. […] After incubation, membranes were washed three times with TBST buffer and then were ready for immunodetection. […]

Test [8] has as its system Bcl-2. Description: Western blot, Bcl-2 protein. The class given is cell-based, human. As to conditions: MCF-7, 1.25, 2.5 and 5 μM, 24 h, vs control cells.
From the text: as §4, with “Among all caspases, caspase 7 is considered as one of the most crucial executioner caspases that mediate cell death, and its expression strongly correlates with apoptosis stimulation.” left out
as §6

For the compound `COc1cccc2c(=O)n(-c3ccc(S(=O)(=O)NCC(=O)Nc4ccc(C)cc4)cc3)c(SCC(=O)Nc3ccc(C)cc3)nc12` [Compound 4d], the IC50 (in general, the concentration at which inhibition is half-maximal) in test [1] worked out at 6.87 ± 0.62 µM; in test [2] it was 2.5 ± 0.2 µM. Also, the “expression of Bax (RT-PCR)” value in the test on Bax [3] (MCF-7, 1.25 µM) amounted to 1.7 fold; in the test on Bax [3] (MCF-7, 2.5 µM), 2 fold; with Bax [3] (MCF-7, 5 µM), 2.4 fold. In addition, the “Bcl-2 expression (RT-PCR)” value in the test with Bcl-2 [4] (MCF-7, 1.25 µM) came out at 0.88 fold; with Bcl-2 [4] (MCF-7, 2.5 µM), 0.68 fold; in the test with Bcl-2 [4] (MCF-7, 5 µM), 0.49 fold. Further, the “expression of caspase 7 (RT-PCR)” value in the test with caspase 7 [5] (MCF-7, 2.5 µM) is on record as 1.35 fold; in the test with caspase 7 [5] (MCF-7, 5 µM), 1.58 fold. The “caspase 7 protein expression (Western blot)” value in the test on caspase 7 [6] (MCF-7, 1.25 μM) worked out at 3 fold; in the test on caspase 7 [6] (MCF-7, 2.5 μM), 3.3 fold; in the test on caspase 7 [6] (MCF-7, 5 μM), 3.9 fold. Also, the “expression of Bax protein (Western blot, in words)” value in the test with Bax [7] was “markedly increased”. The “expression of Bcl-2 protein (Western blot, in words)” value in the test on Bcl-2 [8] is listed as “downregulated in a dose-dependent manner”.

For `CCc1cccc(NC(=O)CNS(=O)(=O)c2ccc(-n3c(SCC(=O)Nc4cccc(CC)c4)nc4c(OC)cccc4c3=O)cc2)c1` [Compound 4f, N-(3-ethylphenyl)-2-((3-(4-(N-(2-((3-ethylphenyl)amino)-2-oxoethyl)sulfamoyl)-phe-nyl)-8-methoxy-4-oxo-3,4-dihydroquinazolin-2yl)thio)acetamide], the IC50 came to 9.76 ± 1.68 µM in test [1] and 5 ± 0.24 µM in test [2]. For the same compound, the “expression of Bax (RT-PCR)” value came out at 1.2 fold in the test on Bax [3] (MCF-7, 1.25 µM); 1.4 fold with Bax [3] (MCF-7, 2.5 µM); 1.6 fold with Bax [3] (MCF-7, 5 µM). The “Bcl-2 expression (RT-PCR)” value in the test with Bcl-2 [4] (MCF-7, 1.25 µM) is listed as 0.92 fold; with Bcl-2 [4] (MCF-7, 2.5 µM), 0.68 fold; in the test with Bcl-2 [4] (MCF-7, 5 µM), 0.62 fold. Besides, the “expression of caspase 7 (RT-PCR)” value came to 1.35 fold in the test with caspase 7 [5] (MCF-7, 2.5 µM) and 1.58 fold with caspase 7 [5] (MCF-7, 5 µM). In addition, the “caspase 7 protein expression (Western blot)” value with caspase 7 [6] (MCF-7, 1.25 μM) is reported as 1.14 fold; in the test with caspase 7 [6] (MCF-7, 2.5 μM) it was 1.2 fold; in the test on caspase 7 [6] (MCF-7, 5 μM) it was 1.5 fold. Further, the “expression of Bax protein (Western blot, in words)” value with Bax [7] is “markedly increased”. In the test on Bcl-2 [8], the “expression of Bcl-2 protein (Western blot, in words)” value is “downregulated in a dose-dependent manner”.
